This note sets out measurements from paper PMC8221158, “Novel pyrrolizines bearing 3,4,5-trimethoxyphenyl moiety: design, synthesis, molecular docking, and biological evaluation as potential multi-target cytotoxic agents” (Journal of Enzyme Inhibition and Medicinal Chemistry, 2021).

The structures appear in SMILES notation.

For this test, the target named is T1, Aurora A (Homo sapiens, UniProt O14965).
T1 sequence (O14965 1-403): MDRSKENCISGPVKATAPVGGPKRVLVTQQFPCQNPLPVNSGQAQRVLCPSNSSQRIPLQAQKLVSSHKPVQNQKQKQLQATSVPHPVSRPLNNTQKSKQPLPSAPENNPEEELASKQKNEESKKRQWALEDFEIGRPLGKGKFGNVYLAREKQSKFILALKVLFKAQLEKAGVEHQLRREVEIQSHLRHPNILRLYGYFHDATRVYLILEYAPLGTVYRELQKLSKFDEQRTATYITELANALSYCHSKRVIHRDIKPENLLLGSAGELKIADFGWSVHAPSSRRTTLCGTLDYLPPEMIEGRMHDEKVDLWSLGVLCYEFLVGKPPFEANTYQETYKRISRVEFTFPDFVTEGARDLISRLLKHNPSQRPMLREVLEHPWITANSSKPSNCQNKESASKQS
Briefly: Kinase profiling test. The settings on record: stated as inhibition. Type of test: biochemical. Here is the method: The test was performed using the radiolabeled ATP determination method (KINEXUS Bioinformatics Corporation, Vancouver, Canada). The test was performed following the previous reports[13]^,[20].
The three compounds were tested at the same concentration (10 μM) against the same 20 kinases used in the previous report. The test was performed by KINEXUS Bioinformatics Corporation (Vancouver, Canada), following previous reports[13]^,[20].

For the compound `COc1cc(C(=O)Nc2c(C#N)c3n(c2C(=O)Nc2ccc(Cl)cc2)CCC3)cc(OC)c1OC` [16d, N-(4-Chlorophenyl)-7-cyano-6-(3,4,5-trimethoxybenzamido) -2,3-dihydro-1H-pyrrolizine-5-carboxamide], at 10 µM the inhibition was 14%.

The term inhibition denotes the percentage by which the read-out fell short of the control.
